Patent publication US20090081154A1, “Attractant composition for yellowjackets” (priority 2006, published 2009)
“And” between values parts separate entries of the source, which are not always exact repeats. Equal entries are not always repeated.

Assays:
Vespula pensylvanica = test: Initial field trap experiment: octyl butyrate, heptyl butyrate or 1:1 mixture, LHS north lawn; type: in vivo; conditions: one trap per composition, 6/15-7/21 (approximately 1 month), LHS NL
Protocol: Several experiments were performed to determine the relative attractiveness of heptyl butyrate, octyl butyrate and a 1:1 mixture of the two esters. In an initial experiment, one trap each containing octyl butyrate, heptyl butyrate, or a 1:1 mixture of the two esters, was placed around the perimeter of the north lawn of the Lawrence Hall of Science, University of California, Berkeley. After approximately 1 month, the yellowjackets in each trap were collected and counted. […]

yellowjackets [1] = test: Three ester trap trials taken together (totals and conclusions); type: in vivo, Vespula pensylvanica; conditions: for relative attractiveness of the esters, in words: heptyl butyrate, octyl butyrate and their combination compared; for Total numbers of yellowjackets caught for all trials: sum of Tables 1-3
Protocol: Several experiments were performed to determine the relative attractiveness of heptyl butyrate, octyl butyrate and a 1:1 mixture of the two esters. In an initial experiment, one trap each containing octyl butyrate, heptyl butyrate, or a 1:1 mixture of the two esters, was placed around the perimeter of the north lawn of the Lawrence Hall of Science, University of California, Berkeley. After approximately 1 month, the yellowjackets in each trap were collected and counted. […] The results are shown below in Table 1: A second experiment was set up at the Lawrence Hall of Science upper patio, placing 4 sets of the three treatments randomly around the patio, a total of 12 traps. One trap containing octyl butyrate was lost and not counted. After twenty days, the total numbers of yellowjackets caught for each of the treatments is shown in table 2 below: A third trial was performed in the same location using a total of 12 traps. There were 4 repetitions of each treatment presented. The total number of yellowjackets caught per each treatment is shown in table 3: Total numbers of yellowjackets caught for all trials are given below: The trial from Jul. 21-Aug. 10, 2005 cannot be assumed to be an anomaly.

yellowjackets [2] = test: Second field trap experiment, LHS upper patio, 4 sets of three treatments; type: in vivo, Vespula pensylvanica; conditions: 7/21-8/10/05, twenty days, LHS UP, 4 traps per treatment (one octyl butyrate trap lost)
Excerpt: A second experiment was set up at the Lawrence Hall of Science upper patio, placing 4 sets of the three treatments randomly around the patio, a total of 12 traps. One trap containing octyl butyrate was lost and not counted.

yellowjackets [3] = test: Third field trap trial, LHS upper patio, 12 traps; type: in vivo, Vespula pensylvanica; conditions: 8/11-9/7/05, LHS UP; for total YJ: 4 repetitions of each treatment
Protocol: A third trial was performed in the same location using a total of 12 traps. There were 4 repetitions of each treatment presented.

yellowjackets [4] = test: Field trap test octyl butyrate vs. OB + 1% methyl salicylate, LHS Back Plaza; type: in vivo, Vespula pensylvanica; conditions: 1% MSA
Protocol: In one experiment, octyl butyrate (OB) was compared with OB containing 1% methyl salicylate (MSA). Six traps were placed at the Lawrence Hall of Science Back Plaza on Jul. 21, 2005. Three of the traps were baited with octyl butyrate alone. The other three were baited with the mixture of 1% methyl salicylate in octyl butyrate. Each of the traps contained 8ml of attractant dispensed on a cotton pad, which was placed inside the trap. The traps were collected on Sep. 8, 2005, and the yellowjackets counted.

yellowjackets [5] = test: Field trap test octyl butyrate vs. OB + 1% trans-2-hexenol, Strawberry Baseball Diamonds; type: in vivo, Vespula pensylvanica; conditions: 8 ml attractant, 27 days; for # of YJ (single trap): per trap, t-2-H 1% by weight
Protocol: In another experiment conducted at the Strawberry Baseball Diamonds, octyl butyrate was compared to octyl butyrate+t-2-hexenol, where the trans-2-hexenol was present in 1% concentration by weight. […] For each treatment, 8 ml of attractant was used. The traps were collected and counted after 27 days. The total number of yellowjackets caught in the three traps with octyl butyrate alone is 113. A total of 170 yellowjackets were caught in the three traps baited with octyl butyrate +t-2-hexenol.

yellowjackets [6] = test: Field trap test octyl butyrate vs. OB + 1% MSA + 1% t-2-H, LHS North Lawn; type: in vivo, Vespula pensylvanica; conditions: three traps per treatment, 8 ml attractant, 1% each MSA and t-2-H; listed as OB
Protocol: In a separate experiment, a mixture of octyl butyrate and the two kairomones methyl salicylate (MSA) and trans-2-hexenol (t-2-H), where the two kairomones were each present in 1% by weight quantities, was tested against octyl butyrate alone. Three repetitions of each treatment were tested in yellowjacket traps placed around the Lawrence Hall of Science North Lawn on Jul. 21, 2005. Each lure contained 8 ml of attractant. The traps were collected and the yellowjackets removed and counted on Aug. 11, 2005. […] A total of 40 yellowjackets were caught using the combination OB+MSA+t-2-H, whereas only 31 yellowjackets were caught in traps baited with OB alone.

Row | SMILES | # YJ caught (Vespula pensylvanica) | relative attractiveness of the esters, in words (yellowjackets [1]) | Total numbers of yellowjackets caught for all trials (yellowjackets [1]) | Total # YJ (yellowjackets [2]) | Avg catch per trap (yellowjackets [3]) | total YJ (yellowjackets [3]) | # of YJ (single trap) (yellowjackets [4]; per trap, 8 ml attractant on cotton pad, LHS Back Plaza, collected Sep. 8, 2005) | Totals (YJ per treatment) (yellowjackets [4]; three traps per treatment, 8 ml attractant) | # of YJ (single trap) (yellowjackets [5]; listed as OB) | # of YJ (single trap) (yellowjackets [5]; listed as Octyl (OB)) | Total YJ per Treatment (yellowjackets [5]; three traps per treatment, t-2-H 1%) | Totals (YJ per treatment) (yellowjackets [6])
1 | CCCCCCCOC(=O)CCC [heptyl butyrate] | 148 | more effective in luring and capturing yellowjackets than octyl butyrate | 625 | 235 | 61 | 242 |  |  |  |  |  | 
2 | CCCCCCCCOC(=O)CCC [octyl butyrate] | 36 | inferior attractant to heptyl butyrate | 315 | 145 | 45 | 134 | 0 | no yellowjackets were caught | 38 and 41 | 34 | 113 | 31 and 30
